Assay results as given in patent US20230212159A1, “Process for the Production of Ferroportin Inhibitors” (Vifor (International) AG, priority 2020, published 2023).

Target: T1, human Fpn (Homo sapiens, UniProt Q9NP59)
T1 construct: FLAG (C); made in house; host or cells: Pichia pastoris
T1 sequence (Q9NP59 1-571): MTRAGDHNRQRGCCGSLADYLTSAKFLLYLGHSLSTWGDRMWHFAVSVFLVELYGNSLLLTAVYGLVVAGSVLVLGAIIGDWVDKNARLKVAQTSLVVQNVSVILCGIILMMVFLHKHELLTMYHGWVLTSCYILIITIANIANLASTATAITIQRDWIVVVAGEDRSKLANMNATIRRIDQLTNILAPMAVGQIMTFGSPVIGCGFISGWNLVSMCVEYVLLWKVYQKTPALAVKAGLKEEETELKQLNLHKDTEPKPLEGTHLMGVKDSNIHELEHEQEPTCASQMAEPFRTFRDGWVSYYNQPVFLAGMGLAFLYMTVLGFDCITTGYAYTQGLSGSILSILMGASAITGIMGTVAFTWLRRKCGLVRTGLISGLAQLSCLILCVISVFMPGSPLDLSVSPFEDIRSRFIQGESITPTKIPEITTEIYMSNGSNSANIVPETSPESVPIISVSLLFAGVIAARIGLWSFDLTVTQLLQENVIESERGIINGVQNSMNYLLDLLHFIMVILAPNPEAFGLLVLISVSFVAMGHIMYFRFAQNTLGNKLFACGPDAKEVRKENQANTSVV
Assay: Biophysical ferroportin-hepcidin binding assay (fluorescence polarization)
Conditions: TMR-hepcidin, tested as 3HCl-salts, n=2, read-out: Biophysical Ferroportin-Hepcidin Binding (FP) IC50
Method: This biophysical assay was developed to confirm inhibition of hepcidin binding to ferroportin (Fpn) more directly. Incubation of TMR-hepcidin with purified human Fpn isolated from Pichia pastoris yeast cells expressing human Fpn with a C-terminal FLAG affinity tag (Bonaccorsi di Patti, 2014) leads to increased fluorescence polarization (FP) of the TMR-hepcidin ligand.
A mixture of […] human Fpn and 30 nM TMR-hepcidin in FP assay buffer containing 50 mM Tris-HCI pH 7.3, 200 mM NaCI, 0.02% DDM, 0.1% BSA was plated into a 384 well black low volume round bottom plate (Corning, Cat. 3677) at […] per well. […] of serial dilutions of test compounds were added in duplicates to reach final Fpn and TMR-hepcidin concentrations of […] and 20 nM, respectively. Plates were incubated for 90 minutes at room temperature and parallel (S) and perpendicular (P) fluorescence was measured in a Synergy H1 fluorescence reader (BioTek). FP values were calculated in mP according to the following formula.
IC50 values were determined with the calculated mP values as described for the hepcidin internalization assay and are listed in Table 2.

SMILES	IC50
O=C(NCc1ncccc1Br)c1coc(CCNCCc2nc3ccccc3[nH]2)n1 [Compound (II′)]	28 nM
O=C(NCc1ncccc1F)c1coc(CCNCCc2nc3ccccc3[nH]2)n1 [Compound (II)]	28 nM
